Test results: patent publication US20040038226A1, “Transgenic animal model by mineralocorticoid receptor antisense expression” (priority 2000, published 2004)

Biological target: T1, mMR (Mus musculus, UniProt Q8VII8)
T1 construct: the level of expression of the endogenous mMR observed in the control males; endogenous in cells; host or cells: whole mice in vivo: double transgenic alphaMHC-tTA/MR animals, with cardiac mMR mRNA lowered by about 50% by the antisense, and wild or single transgenic controls
T1 sequence (Q8VII8 1-978): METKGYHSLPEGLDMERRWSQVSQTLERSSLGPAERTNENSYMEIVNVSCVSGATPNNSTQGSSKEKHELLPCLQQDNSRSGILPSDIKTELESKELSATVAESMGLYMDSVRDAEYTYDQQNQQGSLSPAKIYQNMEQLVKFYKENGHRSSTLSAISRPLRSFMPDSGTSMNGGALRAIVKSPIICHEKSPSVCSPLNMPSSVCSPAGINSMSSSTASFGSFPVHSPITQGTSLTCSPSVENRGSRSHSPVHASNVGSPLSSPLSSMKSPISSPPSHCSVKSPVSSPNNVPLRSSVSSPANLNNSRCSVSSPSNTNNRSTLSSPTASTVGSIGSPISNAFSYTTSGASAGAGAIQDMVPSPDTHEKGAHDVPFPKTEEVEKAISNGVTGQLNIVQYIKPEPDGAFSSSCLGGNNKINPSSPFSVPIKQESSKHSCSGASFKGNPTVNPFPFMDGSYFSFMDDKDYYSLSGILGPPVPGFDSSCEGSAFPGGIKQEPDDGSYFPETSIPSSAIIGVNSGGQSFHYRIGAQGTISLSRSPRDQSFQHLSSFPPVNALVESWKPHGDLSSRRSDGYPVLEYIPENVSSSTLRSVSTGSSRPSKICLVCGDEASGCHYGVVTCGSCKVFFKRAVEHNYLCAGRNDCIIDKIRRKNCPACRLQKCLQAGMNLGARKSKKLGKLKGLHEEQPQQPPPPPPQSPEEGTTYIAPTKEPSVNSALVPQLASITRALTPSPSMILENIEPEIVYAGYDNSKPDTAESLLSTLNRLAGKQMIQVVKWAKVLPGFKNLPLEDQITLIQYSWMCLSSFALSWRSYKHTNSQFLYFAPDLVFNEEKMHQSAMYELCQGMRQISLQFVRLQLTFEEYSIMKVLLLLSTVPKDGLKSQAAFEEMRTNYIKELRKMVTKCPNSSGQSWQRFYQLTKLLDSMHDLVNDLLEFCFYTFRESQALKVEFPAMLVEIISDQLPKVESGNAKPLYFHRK
Test: Administration of spironolactone to control animals (wild or single transgenic)
Format: in vivo, mice
Conditions: 30 mg/kg/day

CC(=O)S[C@@H]1CC2=CC(=O)CC[C@]2(C)[C@H]2CC[C@@]3(C)[C@@H](CC[C@@]34CCC(=O)O4)[C@H]12 [spironolactone]
functional or structural alteration of the heart: does not produce any functional or structural alteration
